Data as given in patent publication US12459951B2, “Compounds that interact with RAS superfamily proteins for treatment of cancers, inflammatory diseases, rasopathies, and fibrotic disease” (SHY Therapeutics, LLC, priority 2022, dated 2025).
Like-named read-outs stand apart in the source and are kept apart here.

What was measured:
IL6 = experiment: IL-6 Quantification Assay (ELISA), LPS-stimulated RAW 264.7; type: cell-based; parameters: inhibition: dose or concentration left out as unconfirmed; settings: Mus musculus, RAW264.7; read-out: IL-6: % inh.
Akt phosphorylation = experiment: Akt Phosphorylation Assay (western blot), Panc-1; type: cell-based, human; settings: at 10 μM, * = activation
Summary of the method: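 Phospho-Akt (Ser473) was measured by western blot in lysates of KRas G12D Panc-1 cells exposed to test compound for 6 h at 37 °C, either at 10 μM final with 0.3% DMSO or as serial dilutions for IC50. One format used overnight 0.5% FBS starvation followed by a 15 min pulse of 1.5 ng/ml EGF. The other used cells in 10% FBS with no stimulation.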

TNF-alpha = TNF-alpha Quantification Assay (ELISA), LPS-stimulated RAW 264.7; type: cell-based; parameters: inhibition: dose or concentration left out as unconfirmed; settings: Mus musculus, RAW264.7, read-out: TNFα: % inh.
[1] = test system: MiaPaca-2 (expressing KRAS G12C mutant); experiment: Proliferation Assay (Cell Viability Assay); type: cell-based; settings: Homo sapiens, MIA PaCa-2
Summary of the method: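 After 2–4 days' exposure at 37 °C, 5% CO2 to a single 10 μM final concentration or a dilution series (IC50), percent proliferation inhibition was derived from CellTiter 96 Aqueous One viability readings. The medium contained 0.3% DMSO and 10% FBS. KRAS G12C MiaPaca-2 cells were plated at 2000–5000/well the day before.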

[2] = read-out: Proliferation in MiaPaca-2: IC50

In the case of `Cc1c(-c2ccn(C)n2)cn2nc(-c3nccn3C)nc(Nc3cc(-c4ccccn4)ccn3)c12` [Compound 248, N-([2,4′-Bipyridin]-2′-yl)-5-methyl-2-(1-methyl-1H-imidazol-2-yl)-6-(1-methyl-1H-pyrazol-3-yl)pyrrolo[2,1-f][1,2,4]triazin-4-amine], the inhibition (IL6) is reported as 75 to 100%, the “% inh of Akt phosphorylation in Panc-1” value (Akt phosphorylation) is reported as “D* (85-100% activation)” and the inhibition (TNF-alpha) is reported as 25 to 49%. It also gave an IC50 [1, 2] of less than 150 nM.

In the case of `COCCCNc1nc(-c2nccn2C)nn2cc(-c3cccc(OC)c3Cl)c(-c3ccccc3)c12` [Compound 30, 6-(2-Chloro-3-methoxyphenyl)-N-(3-methoxypropyl)-2-(1-methyl-1H-imidazol-2-yl)-5-phenylpyrrolo[2,1-f][1,2,4]triazin-4-amine], the inhibition (IL6) is reported as 75 to 100%, the “% inh of Akt phosphorylation in Panc-1” value (Akt phosphorylation) is reported as “D (85-100% inhibition)” and the inhibition at 10 µM (TNF-alpha) is reported as 75 to 100%. The IC50 [1, 2] was 510 to 1000 nM.

With `Cc1c(-c2ccn(C(C)C)n2)cn2nc(-c3nccn3C)nc(Nc3ccn(C(C)C)n3)c12` [Compound 72, N,6-bis(1-Isopropyl-1H-pyrazol-3-yl)-5-methyl-2-(1-methyl-1H-imidazol-2-yl)pyrrolo[2,1-f][1,2,4]triazin-4-amine] the inhibition (IL6) was 50 to 74%, the “% inh of Akt phosphorylation in Panc-1” value (Akt phosphorylation) was “D* (85-100% activation)” and the inhibition at 10 µM (TNF-alpha) was 1 to 24%. It also gave an IC50 [1, 2] greater than 1000 nM.

In the case of `Cc1c(-c2ccn(C)n2)cn2nc(-c3nccn3C)nc(Nc3cc(-n4ccnc4C)ccn3)c12` [Compound 246, 5-Methyl-N-(4-(2-methyl-1H-imidazol-1-yl)pyridin-2-yl)-2-(1-methyl-1H-imidazol-2-yl)-6-(1-methyl-1H-pyrazol-3-yl)pyrrolo[2,1-f][1,2,4]triazin-4-amine], the inhibition (IL6) is reported as 25 to 49%, the “% inh of Akt phosphorylation in Panc-1” value (Akt phosphorylation) is reported as “D* (85-100% activation)” and the inhibition at 10 µM (TNF-alpha) is reported as 0%. For the same molecule, the IC50 [1, 2] was 150 to 500 nM.

With `COc1cc(Nc2nc(-c3nccn3C)nn3cc(-c4cccnc4)c(C)c23)ncn1` [Compound 48, N-(6-Methoxypyrimidin-4-yl)-5-methyl-2-(1-methyl-1H-imidazol-2-yl)-6-(pyridin-3-yl)pyrrolo[2,1-f][1,2,4]triazin-4-amine] the inhibition (IL6) was 1 to 24%, the “% inh of Akt phosphorylation in Panc-1” value (Akt phosphorylation) was “D* (85-100% activation)” and the inhibition at 10 µM (TNF-alpha) was 1 to 24%. It also gave an IC50 [1, 2] of less than 150 nM.

With `Cc1c(-c2ccn(C)n2)cn2nc(-c3nccn3C)nc(Nc3cc(-c4cccnc4)ccn3)c12` [Compound 250, N-([3,4′-Bipyridin]-2′-yl)-5-methyl-2-(1-methyl-1H-imidazol-2-yl)-6-(1-methyl-1H-pyrazol-3-yl)pyrrolo[2,1-f][1,2,4]triazin-4-amine] the inhibition (IL6) was 75 to 100%, the “% inh of Akt phosphorylation in Panc-1” value (Akt phosphorylation) was “D* (85-100% activation)” and the inhibition at 10 µM (TNF-alpha) was 50 to 74%. For the same molecule, the IC50 [1, 2] was less than 150 nM.

For `COc1cc(Nc2nc(-c3nccn3C)nn3cc(-c4ccn(C)n4)c(C)c23)ncn1` [Compound 63, N-(6-Methoxypyrimidin-4-yl)-5-methyl-2-(1-methyl-1H-imidazol-2-yl)-6-(1-methyl-1H-pyrazol-3-yl)pyrrolo[2,1-f][1,2,4]triazin-4-amine], the inhibition (IL6) was 1 to 24%, the “% inh of Akt phosphorylation in Panc-1” value (Akt phosphorylation) was “D* (85-100% activation)” and the inhibition at 10 µM (TNF-alpha) was 1 to 24%. It also gave an IC50 [1, 2] of less than 150 nM.

For `Cc1c(-c2ccn(C(C)C)n2)cn2nc(-c3nccn3C)nc(Nc3nnc(C4CC4)o3)c12` [Compound 67, 5-Cyclopropyl-N-(6-(1-isopropyl-1H-pyrazol-3-yl)-5-methyl-2-(1-methyl-1H-imidazol-2-yl)pyrrolo[2,1-f][1,2,4]triazin-4-yl)-1,3,4-oxadiazol-2-amine], the inhibition (IL6) was 75 to 100%, the “% inh of Akt phosphorylation in Panc-1” value (Akt phosphorylation) was “D* (85-100% activation)” and the inhibition at 10 µM (TNF-alpha) was 50 to 74%. It also gave an IC50 [1, 2] greater than 1000 nM.

With `Cc1c(-c2ccn(C(C)C)n2)cn2nc(-c3nccn3C)nc(Nc3ncco3)c12` [Compound 60, N-(6-(1-Isopropyl-1H-pyrazol-3-yl)-5-methyl-2-(1-methyl-1H-imidazol-2-yl)pyrrolo[2,1-f][1,2,4]triazin-4-yl)oxazol-2-amine] the inhibition (IL6) was 0%, the “% inh of Akt phosphorylation in Panc-1” value (Akt phosphorylation) was “D* (85-100% activation)” and the inhibition at 10 µM (TNF-alpha) was 0%. It also gave an IC50 [1, 2] greater than 1000 nM.

In the case of `COC[C@@H]1CC[C@@H]1CNc1nc(-c2ccccn2)nn2cc(-c3ccn(C(C)C)n3)c(-c3ccccc3)c12` (racemic) [Compound 26, rac 6-(1-Isopropyl-1H-pyrazol-3-yl)-N-(((1S,2R)-2-(methoxymethyl)cyclobutyl)methyl)-5-phenyl-2-(pyridin-2-yl)pyrrolo[2,1-f][1,2,4]triazin-4-amine], the inhibition (IL6) is reported as 50 to 74%, the “% inh of Akt phosphorylation in Panc-1” value (Akt phosphorylation) is reported as “C (50-84% inhibition)” and the inhibition at 10 µM (TNF-alpha) is reported as 1 to 24%. It also gave an IC50 [1, 2] of 510 to 1000 nM.

In the case of `COc1cccc(Nc2nc(-c3nccn3C)nn3ccc(C)c23)n1` [Compound 38, N-(6-Methoxypyridin-2-yl)-5-methyl-2-(1-methyl-1H-imidazol-2-yl)pyrrolo[2,1-f][1,2,4]triazin-4-amine], the inhibition (IL6) is reported as 25 to 49%, the “% inh of Akt phosphorylation in Panc-1” value (Akt phosphorylation) is reported as 0 (0% inhibition) and the inhibition at 10 µM (TNF-alpha) is reported as 1 to 24%. The IC50 [1, 2] was greater than 1000 nM.

For `CO[C@H]1C[C@H](Nc2nc(-c3nccn3C)nn3cc(-c4ccn(C)n4)c(C4CC4)c23)C1` [Compound 275, 5-Cyclopropyl-N-((1r,3r)-3-methoxycyclobutyl)-2-(1-methyl-1H-imidazol-2-yl)-6-(1-methyl-1H-pyrazol-3-yl)pyrrolo[2,1-f][1,2,4]triazin-4-amine], the inhibition (IL6) was 0%, the “% inh of Akt phosphorylation in Panc-1” value (Akt phosphorylation) was “D* (85-100% activation)” and the inhibition at 10 µM (TNF-alpha) was 0%. The IC50 [1, 2] was greater than 1000 nM.

With `COc1cc(Nc2nc(-c3nccn3C)nn3cc(-c4ccn(C)n4)c(C)c23)n[nH]1` [Compound 252, N-(5-Methoxy-1H-pyrazol-3-yl)-5-methyl-2-(1-methyl-1H-imidazol-2-yl)-6-(1-methyl-1H-pyrazol-3-yl)pyrrolo[2,1-f][1,2,4]triazin-4-amine] the inhibition (IL6) was 1 to 24%, the “% inh of Akt phosphorylation in Panc-1” value (Akt phosphorylation) was “D* (85-100% activation)” and the inhibition at 10 µM (TNF-alpha) was 0%. The IC50 ([1]; Proliferation assay, MiaPaca-2, read-out: MiaPaca-2 IC50 (nM) Pancreatic) was 10 to 50 nM and the IC50 [1, 2] was less than 150 nM.

For `COc1ccc(Nc2nc(-c3nccn3C)nn3cc(-c4ccn(C(C)C)n4)c(C)c23)cn1` [Compound 71, 6-(1-Isopropyl-1H-pyrazol-3-yl)-N-(6-methoxypyridin-3-yl)-5-methyl-2-(1-methyl-1H-imidazol-2-yl)pyrrolo[2,1-f][1,2,4]triazin-4-amine], the inhibition (IL6) was 0%, the “% inh of Akt phosphorylation in Panc-1” value (Akt phosphorylation) was “D* (85-100% activation)” and the inhibition at 10 µM (TNF-alpha) was 0%. The IC50 [1, 2] was greater than 1000 nM.

With `COc1cccc(-c2cn3nc(-c4nccn4C)nc(N[C@H]4C[C@@H](OC)C4)c3c2-c2ccccc2)c1C` [Compound 269, 6-(3-Methoxy-2-methylphenyl)-N-((1s,3s)-3-methoxycyclobutyl)-2-(1-methyl-1H-imidazol-2-yl)-5-phenylpyrrolo[2,1-f][1,2,4]triazin-4-amine] the inhibition (IL6) was 75 to 100%, the “% inh of Akt phosphorylation in Panc-1” value (Akt phosphorylation) was “C (50-84% inhibition)” and the inhibition at 10 µM (TNF-alpha) was 75 to 100%. The IC50 [1, 2] was 510 to 1000 nM.

With `COc1cncnc1Nc1nc(-c2nccn2C)nn2cc(-c3ccn(C(C)C)n3)c(C)c12` [Compound 73, 6-(1-Isopropyl-1H-pyrazol-3-yl)-N-(5-methoxypyrimidin-4-yl)-5-methyl-2-(1-methyl-1H-imidazol-2-yl)pyrrolo[2,1-f][1,2,4]triazin-4-amine] the inhibition (IL6) was 50 to 74%, the “% inh of Akt phosphorylation in Panc-1” value (Akt phosphorylation) was “D* (85-100% activation)” and the inhibition at 10 µM (TNF-alpha) was 0%. It also gave an IC50 [1, 2] of less than 150 nM.

With `COc1cnc(Nc2nc(-c3nccn3C)nn3cc(-c4ccn(C(C)C)n4)c(C)c23)nc1` [Compound 56, 6-(1-Isopropyl-1H-pyrazol-3-yl)-N-(5-methoxypyrimidin-2-yl)-5-methyl-2-(1-methyl-1H-imidazol-2-yl)pyrrolo[2,1-f][1,2,4]triazin-4-amine] the inhibition (IL6) was 25 to 49%, the “% inh of Akt phosphorylation in Panc-1” value (Akt phosphorylation) was “B* (26-49% activation)” and the inhibition at 10 µM (TNF-alpha) was 1 to 24%. For the same molecule, the IC50 [1, 2] was 150 to 500 nM.

In the case of `Cc1c(-c2ccn(C)n2)cn2nc(-c3nccn3C)nc(Nc3cc(-c4ccccc4)[nH]n3)c12` [Compound 263, 5-Methyl-2-(1-methyl-1H-imidazol-2-yl)-6-(1-methyl-1H-pyrazol-3-yl)-N-(5-phenyl-1H-pyrazol-3-yl)pyrrolo[2,1-f][1,2,4]triazin-4-amine], the inhibition (IL6) is reported as 75 to 100%, the “% inh of Akt phosphorylation in Panc-1” value (Akt phosphorylation) is reported as “D* (85-100% activation)” and the inhibition at 10 µM (TNF-alpha) is reported as 50 to 74%. For the same molecule, the IC50 [1, 2] was less than 150 nM.

In the case of `Cc1c(-c2ccn(C(C)C)n2)cn2nc(-c3nccn3C)nc(Nc3nnco3)c12` [Compound 59, N-(6-(1-Isopropyl-1H-pyrazol-3-yl)-5-methyl-2-(1-methyl-1H-imidazol-2-yl)pyrrolo[2,1-f][1,2,4]triazin-4-yl)-1,3,4-oxadiazol-2-amine], the inhibition (IL6) is reported as 25 to 49%, the “% inh of Akt phosphorylation in Panc-1” value (Akt phosphorylation) is reported as “C* (46-84% activation)” and the inhibition at 10 µM (TNF-alpha) is reported as 1 to 24%. The IC50 [1, 2] was 150 to 500 nM.

`Cc1c(-c2ccn(C)n2)cn2nc(-c3nccn3C)nc(Nc3cc(-c4cccnc4)[nH]n3)c12` [Compound 264, 5-Methyl-2-(1-methyl-1H-imidazol-2-yl)-6-(1-methyl-1H-pyrazol-3-yl)-N-(5-(pyridin-3-yl)-1H-pyrazol-3-yl)pyrrolo[2,1-f][1,2,4]triazin-4-amine] was tested, and the inhibition (IL6) was 75 to 100%, the “% inh of Akt phosphorylation in Panc-1” value (Akt phosphorylation) was “D* (85-100% activation)” and the inhibition at 10 µM (TNF-alpha) was 25 to 49%. It also gave an IC50 [1, 2] of 150 to 500 nM.
